Assays:
[1] = GSH arylation rate constants (NMR; UV-vis for fast warheads); type: physicochemical; design: key to rate constant (k) for the reaction with GSH / k: NR = no reaction; conditions: for k change (vs ref): ratio to rate constant of 4q, acceleration (+) or deceleration (-)
Excerpt: We employed nuclear magnetic resonance (NMR) and UV–vis to quantify the reactivity of our 2-SP derivatives and other representative electrophiles (Figure 2) against cysteine. NMR allowed straightforward determination of reaction rate constants through dual monitoring of the consumption of the warhead and formation of the product by integration of their respective NMR signals (Figures S1–S3). It simultaneously provided a direct readout on reaction specificity and hydrolytic stability of the warhead. All measurements were carried out in KPi buffer in the presence of 5% d^6-dmso, which is generally well-tolerated by a wide range of proteins in in vitro studies. N-acetylcysteine methylester (NACME) and L-glutathione (GSH) are useful model cysteine nucleophiles for in vitro studies of electrophilic agents.[32] Mixing reference electrophile 2-methylsulfonylpyrimidine (4q) with NACME or GSH in a 1:10 ratio (pseudo-first-order conditions) allowed extraction of accurate and reproducible second order rate constants (k).
Figure 3 In vitro determination of electrophilic reactivity of compounds. (A) NMR assay setup for warhead/GSH reaction rate constant determination and chemoselectivity monitoring, over a 6 h time scale. Purple bead = GSH. Hydrolytic stability was determined in the same way over 36 h. d^4-Trimethylsilylpropanoate (TMSP, blue box) was used as an internal standard for monitoring the warhead solubility. Second-order reaction rate constants (k) were obtained from their pseudo-first-order counterparts (k′), by time-dependent normalized integration of the disappearing warhead signals. […] (B) Experimental second-order rate constants (y axis, log10 scale) for the reaction of representative 2-SP derivatives (left, 11 out of ca. 40 examples) and previously reported heteroarylsulfones (right) with GSH in a KPi buffer, pH 7.0, 20 °C. All rate constants were calculated as an average of at least two independent measurements. Numerical values and standard deviations at both pH 7.0 and 6.5, along with a full list of 2-SPs and other electrophile types tested, are presented in Tables S2–S6 and Figure S4. The horizontal dashed line marks the reaction rate of 2-methylsulfonylpyrimidine at pH 7.0, as a reference when comparing with other reagents (see main text).
To establish an accurate structure–reactivity profile of 2-SP reagents, we systematically determined their reaction rate constants for the arylation of GSH by NMR, at pH 7.0 and 6.5. This was a prerequisite to (i) quantify the influence of substitution on reaction rates; (ii) accurately assess the tunability and chemoselectivity of 2-SPs for cysteine arylation; (iii) determine the influence of pH on the reaction rates to further inform on the precise reaction mechanism; and (iv) benchmark the overall performance of 2-SPs with those of previously reported fast reacting heteroarylsulfones and other common cysteine reactive warheads (Figure 2C,D).

[2] = pH 7
Excerpt: Stability and solubility assays
(§1) TopSpin. Normalised integrations of the pyrimidine aromatic 1H signals in the starting material and
(§2) product were plotted as a function of time (s), using the TMSP peak as standard for integral
(§3) calibration/normalisation and monitoring of compound solubility, allowing extraction of pseudo first
(§4) order reaction rate constants (k’). Second order rate constants (k) were back calculated from the ratio
(§5) of the pseudo first counterparts and the concentration of thiol in solution.
(§6) was confirmed by formation of a single S-arylated product (characteristic 2-alkylthioether signals),
(§7) concomitant with formation of the sulfinic acid by -product (leaving group). Hydrolytic stability
(§8) assessment was performed at pH 7.0 and pH 8.2 in a similar manner, in the absence of thiol.
(§9) Chemoselectivity. Similarly, but replacing GSH by other amino acids , reference 2-
(§10) methylsulfonylpyrimidine 4q in 50 mM KPi (pH 8.2) was incubated with 10 equivalents of either Boc-
(§11) Lys-OH, L-ser-OMe, N-Ac-Tyr-OH or Proline were used.

p53-Y220C DBD = biological target: T1, p53-Y220C DBD (Homo sapiens, UniProt P04637, M133L/N239Y/N268D/V203A/Y220C); experiment: Protein arylation by ESI mass spectrometry; type: binding
T1 construct: (residues 94-312); 6xHis/lipoyl domain/TEV protease cleavage site (N, cleaved yes); made in house; host or cells: E. coli C41
Experimental: In mass spectrometry experiments, we incubated 50 μM purified p53-Y220C DBD in KPi buffer at varying pH’s (6.0–8.0), temperatures (0 and 20 °C), and equivalents of 2-SPs (20–100). Representative 2-SPs were selected to span a broad reactivity range to determine whether trends observed in GSH in vitro assays translate to relative rates of modification of solvent exposed cysteines in folded proteins. […] The same could also be achieved with only 20 equiv of reagent by increasing the temperature to 20 °C, or raising the pH to 8.0. This is an important result because late-stage protein functionalization with bromo- and iodo-(hetero)aromatic motifs is challenging and inaccessible by metal-catalyzed arylation methodologies due to dehalogenation and/or off-target specificity. The introduction of an iodo-(hetero)aromatic motif on the protein surface facilitates drastically the crystal structure resolution with a sharp variation of density. […] Overall, we observed good correlation between GSH and protein experiments.
Figure 4 Biophysical and structural characterization of protein cysteine arylation by 2-SPs. […] Stoichiometry, reaction time/temperature, and pH are indicated in each case. X axis: m/z (Da). Y axis: normalized intensities as a percentage of the most intense peak. Middle: Structure of the modified Y220C mutant (green) superimposed onto the structure of the unmodified protein (gray, PDB entry 6SHZ)[40] showing the region around modified C182 (E) and C277 (F). Hydrogen bonds formed by the pyrimidine are highlighted as dashed yellow lines. 2Fo – Fc electron density maps are shown at a contour level of 1.3σ for segments of chain B including the modified residues C182 and C277. Bottom (F): Protein thermal stability (ΔTm, °C) of p53-Y220C, β-catenin ARD. and FGE, determined by DSF in the presence of 100 μM 2-SP derivatives. […]

[3] = Solubility in KPi buffer by NMR with TMSP internal standard; conditions: 50 mM KPi aqueous buffer, pH 7, aqueous with cosolvent or surfactant or cyclodextrin, kinetic from dmso stock
Excerpt: Stability and solubility assays
as §1, §2, §3, §4, §5, §6, §7, §8, §9, §10, §11

[4] = Hydrolytic stability in KPi buffer without thiol (NMR); type: physicochemical; conditions: pH 8.2; over 12 hours; 50 mM KPi; footnote a: crashing out of solution, no degradation product
Experimental: NMR studies: rate constant determination and hydrolytic stability. 850 µL of 50 mM Kpi buffer solution (pH 8.2 or 7), 20 µL of the appropriate pyrimidine stock s olution (100 mM in DMSO -d6), 20 µL of TMSP stock solution (22.2 mM in DI water), 30 µL DMSO -d6, and 80 µL of GSH stock solution (0.25 M in DI water, reactivity only) were successively added/mixed at room temperature, final pH 7.0 or 6.5 (Table S1). 600 µL of this freshly prepared solution was poured into an NMR tube and immediately […]
transferred to the NMR instrument for acquisition. 1H spectra (16 scans) were recorded every 10 minutes under water suppression conditions. Following acquisition, spectra were analysed using […]
order reaction rate constants (k’).

p53 = tested on: p53; design: method as in PMID 19411067; conditions: in vitro; cited from earlier work
[5] = design: method as in PMID 11747461; conditions: cited from earlier work

Molecule: 2-methylsulfonyl-1,3,4-oxadiazole 5-phenyl [compound 8, reference compound]
- rate constant (k) for the reaction with GSH ([1]; pH 6.5, measured by UV titrations): 35 ± 2 M⁻¹ s⁻¹
- second order rate constant k with GSH ([1]; pH 7.0, KPi buffer): ≈ 160 M^–1 s^–1
- rate constant (k) for the reaction with GSH ([1]; pH 7.0, measured by UV titrations): 160 ± 9.2 M⁻¹ s⁻¹
- k change (vs ref) ([1]; pH 7.0): +6,400 fold
- Solubility upon mixing (t0) [2]: 100 µM

Molecule: COc1cnc(S(C)(=O)=O)nc1 [4n]
- rate constant (k) for the reaction with GSH ([1]; pH 6.5, by NMR, KPi buffer, 5% DMSO-d6): NR
- second order rate constant k with GSH ([1]; pH 7.0, KPi buffer): < 5.0 × 10^–5 M^–1 s^–1
- rate constant (k) for the reaction with GSH ([1]; pH 7.0, by NMR, KPi buffer, 5% DMSO-d6): NR
- protein modification by ESI-MS (in words) (p53-Y220C DBD; 50 μM protein, all conditions tested, even after 4 h at 20 °C): could not detect any protein modification

Molecule: COC(=O)c1cnc(S(C)(=O)=O)nc1 [4y]
- k ([1]; Table S8, rate constants obtained at pH = 7): 9900 M⁻¹ s⁻¹
- second order rate constant k with GSH ([1]; pH 7.0, KPi buffer): ≈ 9900 M^–1 s^–1
- k change (vs ref) ([1]; pH 7.0): +396,000 fold
- k/kref ([1]; relative to 4q): 396000
- ΔΔG≠1exp ([1]; relative to 4q, via -RTln(k/kref)): -7.65 kcal/mol
- solubility [3]: ≥ 2000 µM
- melting point: 128 °C
- protein arylation by ESI-MS (in words) (p53-Y220C DBD; 20 equiv, pH 6.0, 0 °C): complete and clean double protein arylation
- time to complete double arylation (p53-Y220C DBD; 20 equiv, pH 6.0, 0 °C): under 30 s
- % degradation [4]: 100%

Molecule: C=C1C(=O)C2CCN1CC2 [APR-244-MQ]
- number of cysteines reacted (p53): up to nine

Molecule: N[C@@H](CCC(=O)N[C@@H](CS)C(=O)NCC(=O)O)C(=O)O [GSH, L-glutathione]
- pKa of the sulfhydryl group [5]: 9.2

Molecule: COC(=O)[C@H](CS)NC(C)=O [NACME, N-acetylcysteine methylester]
- pKa of the sulfhydryl group [5]: 8.3

— article PMC10515483, “Structure–Reactivity Studies of 2-Sulfonylpyrimidines Allow Selective Protein Arylation” (Bioconjugate Chemistry, 2023)
